# According to PMC10590756, “Glutarate regulates T cell metabolism and anti-tumour immunity” (Nature Metabolism, 2023):
# How the values were obtained:
# [1] = tested on: primary murine CD8^+ T cells; experiment: Screen of T cell differentiation: CD62L/CD44 populations by flow cytometry; assay type: cell-based, mouse
# Text: We first sought to investigate if compounds structurally related to 2HG could increase the TCM population of CD8^+ T cells. To carry out this analysis, we identified 19 structural analogues of 2HG; eight were commercially available and 11 were synthesized de novo for the purposes of this study (Table 1). We used esterified versions of most of the compounds used, so as to increase both potency and intracellular translocation. The octyl ester form of S-2HG was used as a positive control in these assays. We screened the compounds for effects on T cell differentiation at 400-µM levels (using the efficacy of S-2HG in CD8^+ T cells as a guide[11]) in culture media during the process of activation of isolated primary murine CD8^+ T cells.
# After 7 days of culture, we assessed the abundance of CD62L^hiCD44^hi (TCM-like) T cells by flow cytometry (Fig. 1a). We additionally determined the effect of each compound on cell growth and viability (Fig. 1b and Extended Data Fig. 1a).
# Mouse CD8^+ T cells were isolated from mouse spleens using positive selection. Incubation with microbeads conjugated to monoclonal anti-mouse CD8α (Ly-2; isotype: rat IgG2a) antibody (catalogue no. 130-049-401, Miltenyi Biotec) was followed by magnetic bead isolation on a MACS column. WT mouse CD8^+ T cells were activated with anti-mouse CD3/CD28 Dynabeads (catalogue no. 11453D, Thermo Fisher Scientific) at a 1:1 cell:bead ratio. Purified OT1 CD8^+ T cells were activated with 1 µg ml^−1 of the OVA-derived peptide SIINFEKL (ProImmune). All mouse CD8^+ T cells were cultured in complete RPMI 1640 supplemented with 10% FCS, 100 U ml^−1 penicillin, 100 µg ml^−1 streptomycin, 55 µM 2-ME (catalogue no. 21985023, Gibco) and 10 U ml^−1 IL-2.
# Single-cell suspensions were stained with LIVE/DEAD Fixable Near-IR Dead Cell Stain Kit (catalogue no. 10119, Thermo Fisher Scientific) followed by surface and intracellular staining with fluorochrome-labelled antibodies (Supplementary Tables 1 and 2). […]
# CD8^+ T cells = experiment: Western blot of PDHK1, phosphorylated PDHc and PDHc; assay type: cell-based, human; settings: 500 µM DEG
# Protocol: Cell pellets were lysed by either urea-Tris buffer (8 M urea, 50 mM Tris-HCl (pH 7.5), 150 mM β-mercaptoethanol), sonicated twice for 45 s intercalated with 1 min incubation on ice and centrifuged at 14,000g, 4 °C for 15 min or by RIPA Lysis and Extraction Buffer (catalogue no. 89900, Thermo Fisher Scientific), according to the manufacturer’s instructions. Nuclear and cytosolic fractions were prepared from cells using the NE-PER kit (catalogue no. 78833, Thermo Fisher Scientific). Histones were extracted with the Histone Extraction Kit (catalogue no. ab113476, Abcam). Proteins were separated by SDS–PAGE and transferred to polyvinylidene fluoride (PVDF) membranes. Total protein stain was obtained using non-stain protein labelling reagent (catalogue no. A44448, Thermo Fisher Scientific). Membranes were then blocked in 5% milk prepared in PBS plus 0.05% Tween-20, incubated with primary antibodies overnight at 4 °C and horseradish peroxidase (HRP)-conjugated secondary antibodies (catalogue nos. HAF008 and HAF007, R&D Systems) for 1 h the next day. After enhanced chemiluminescence (ECL) exposure (catalogue no. GERPN2106, Sigma-Aldrich), membranes were imaged using an iBrightCL1000 (Thermo Fisher Scientific). The following primary antibodies from Cell Signaling Technology were used at a concentration of 1:1,000: anti-PDHK1 (catalogue no. 3820); anti-β-actin (catalogue no. 12262S); anti-PPIB (catalogue no. 43603); anti-OGDH (catalogue no. 26865S); anti-phospho-PDH α1 (catalogue no. 37115); anti-SIRT5 (catalogue no. 8779S); anti-H3 (catalogue no. 4499); anti-H3K4me2 (catalogue no. 9725); anti-H3K4me3 (catalogue no. 9751); anti-H3K9me2 (catalogue no. 4658); anti-H3K9me3 (catalogue no. 13969); anti-H3K27me2 (catalogue no. 9728); anti-H3K27me3 (catalogue no. 9733); anti-H3K36me2 (catalogue no. 2901); anti-H3K36me3 (catalogue no. 4909); anti-H3K79me2 (catalogue no. 5427); anti-H3K79me3 (catalogue no. 4360); anti-H3k9ac (catalogue no. 9649); anti-H3K18ac (catalogue no. 13998); and anti-H3k27ac (catalogue no. 8173). […]
# human CD8^+ T cells = experiment: Glucose uptake assay; assay type: cell-based; settings: 500 µM DEG, acute and chronic
# Protocol: Glucose uptake was determined using a Glucose Uptake Assay Kit (catalogue no. J1341, Promega Corporation). The assay was performed according to the manufacturer’s instructions. Data were acquired on the FLUOstar Omega.
# B16F10-OVA cancer cells = experiment: In vitro cytotoxicity of OT1 CD8^+ T cells; assay type: cell-based, mouse; settings: T cells cultured 7 days with 500 µM DEG
# Protocol: Ten thousand B16F10-OVA or SKOV3 cells were seeded per well in 96-well plates and cocultured for a minimum of 14 h with varying ratios of mouse CD8^+ OT1 or human CD8^+RQR8^+ HER2 CAR T cells, respectively. T cells had been treated with or without DEG 7 days before the assay. Wells were washed twice with PBS to remove T cells and the number of remaining target cells was determined by culturing with 10 µg ml^−1 resazurin (catalogue no. R7017, Sigma-Aldrich) and measuring the fluorescence signal in a plate reader. Cytotoxicity was calculated relative to wells with no T cells added. Ten thousand Raji cells were cocultured for a minimum of 14 h with CD19 CAR T cells previously activated for 7 days and cultured with or without DEG. Cytotoxicity was assessed by flow cytometry using the ratio of live Raji cells to CountBright Absolute Counting Beads (catalogue no. C36950, Thermo Fisher Scientific). To determine specific cytotoxicity, data were normalized to the cytotoxicity of the vector-controlled transduced CD8 T cells of the respective donor.
smiles,measurement,setting,value
"CCOC(=O)CCCC(=O)OCC [DEG, Diethyl glutarate]",abundance of CD62L^hiCD44^hi (TCM-like) CD8^+ T cells,"[1]; 400 µM test compound, 7 days of culture",significantly increased
same,effector memory T (TEM) cell population (CD62L^loCD44^hi),[1]; 7 days of culture with DEG,decreased
same,CD62L^hiCD44^hi TCM population,"[1]; increasing concentrations of DEG, 7 days",increased the CD62L^hiCD44^hi TCM population in a dose-dependent manner
same,PDHK1 protein levels,CD8^+ T cells,not significantly altered
same,PDHc phosphorylation levels,CD8^+ T cells,did not observe any changes
same,protein expression of the PDHc,CD8^+ T cells,did not alter
same,rate of glucose uptake,human CD8^+ T cells,no changes
same,killing of B16F10-OVA cancer cells by OT1 CD8^+ T cells,B16F10-OVA cancer cells,more proficient at killing
